{"source": "paper PMC7352759", "about": "“S(+)-(2E)-N-(2-Hydroxypropyl)-3-Phenylprop-2-Enamide (KM-568): A Novel Cinnamamide Derivative with Anticonvulsant Activity in Animal Models of Seizures and Epilepsy” (International Journal of Molecular Sciences, 2020)", "key": {"mice [1]": {"system": "mice", "experiment": "Maximal electroshock test (MES), mice", "assay_type": "in vivo", "conditions": "for ED50: Mus musculus, 95% confidence interval in parentheses", "experimental": "In vivo activity testing was performed at the Epilepsy Branch, National Institute of Neurological Disorders and Stroke, National Institutes of Health (NIH, Bethesda, USA) within the Anticonvulsant Screening Program (ASP) (currently known as the Epilepsy Therapy Screening Program (ETSP)). Pharmacological evaluation was planned and performed in accordance with the Institute of Laboratory Resources polices on the humane care of laboratory animals and approved by the University of Utah’s Institutional Animal Care and Use Committee (IACUC). All testing protocols were previously published as well as they are available on the NIH website. In the tests, albino mice Carworth Farms No.1 (CF-1) (Charles River), C57/Bl6 mice (Charles River), Frings mice (University of Utah) or male rats Sprague–Dawley (Charles River) were used. All animals were housed, fed, and handled in a manner consistent with the recommendations in the National Council Publication, ‘Guide for the Care and Use of Laboratory animals’ [51]. The tested compound was suspended in 0.5% methylcellulose.\nAfter intraperitoneal or oral administration of compound KM-568 at certain dose, an alternating current at 60 Hz and 50 mA (mice) or 150 mA (rats) was delivered for 0.2 sec via corneal electrodes to induce seizures. Prior to each stimulation, a drop of 0.5% tetracaine hydrochloride in saline was applied to cornea. Protection was defined as the abolition of the hindlimb tonic extension of the seizures."}, "CF-1 mice": {"system": "CF-1 mice", "experiment": "Intravenous metrazol seizure threshold test (ivMET)", "assay_type": "in vivo", "conditions": "0.25 h, mean ± SEM; for Time to clonus / Time to twitch: ten animals", "experimental": "Then, 0.5% metrazol solution was then infused at a previously determined time-to-peak effect (0.25 h). The infusion was done at a constant rate of 0.34 mL/min through a tube cannulating a lateral tail vein of a test animal. The time from the start of the infusion to the appearance of the first twitch (time to twitch in sec) and the onset of sustained clonus (time to clonus in sec) were recorded. These times were also converted to the dose of metrazol (in mg/kg) causing first twitch and clonus."}, "[2]": {"system": "LTG-resistant amygdala kindled Sprague–Dawley rats", "experiment": "Lamotrigine (LTG) resistant amygdala kindled seizure model in rats", "assay_type": "in vivo", "conditions": "0.25 h", "experimental": "Anesthetized male Sprague–Dawley rats (250–300 g) were surgically implanted with an electrode into the left amygdala. After a one-week recovery period, kindling was initiated. A suprathreshold stimulus (200 µA) was delivered daily until all animals display stage 4–5 seizures. Lamotrigine at 5 mg/kg i.p. was also administered daily during kindling acquisition. One week after all animals were kindled, the animals received a challenge dose of lamotrigine (30 mg/kg, i.p.) to confirm LTG-resistance. On the 4th day, compound KM-568 was administered i.p. at the doses 20, 40, and 80 mg/kg. Fifteen minutes after administration, rats were challenged with the kindling stimulus. Results were provided as seizure score (according to Racine scale, protection defined as less than 3) and after discharge duration (in sec)."}, "mice [3]": {"system": "mice", "experiment": "Formalin test of hyperalgesia", "assay_type": "in vivo", "conditions": "44 mg/kg i.p.; for Reduction of time of licking of the affected paw: not statistically significant; for AUC % Control: vs methylcellulose", "experimental": "0.05% formalin was injected subdermal to the hindpaws of mice, which caused licking. In the tested group (n = 8), KM-568 was administered intraperitoneally 0.25 h prior to formalin at the dose of 44 mg/kg. In the control group, methylcellulose was used. Animals were then observed for the first 2 min of each 5 min for a total of 40 min. The cumulative duration of licking (in sec) during each 2-min recording period was measured for analysis across compound and vehicle-pretreated groups."}, "[4]": {"system": "Salmonella typhimurium strains TA98, TA100, TA1535 and TA1537", "experiment": "Ames microplate format (MPF) assay, overall verdict", "conditions": "0.1, 0.2, 0.5 mM; four strains", "source_text": "The Ames microplate format (MPF) mutagenicity assay (Xenometrix, Allschwil, Switzerland) was used to test KM-568 mutagenicity. Growth, exposure, and indicator media, positive control chemicals, and four Salmonella typhimurium strains TA98, TA100, TA1535 and TA1537 were included in the kit. TA100 and TA1535 strains detect base substitution mutations, whereas TA98 and TA1537 indicate frameshift mutations. The strains of bacteria included in a kit are in compliance with the Organization for Economic Cooperation and Development (OECD) 471 Guideline for Testing of Chemicals.\nThe assay is a liquid microplate modification of the traditional Salmonella test. During the procedure, bacteria are exposed to different concentrations of a test compound for 90 min in a medium containing sufficient histidine to support cell divisions. […]\nThe test procedure provided by Xenometrix and described in detail elsewhere was followed. […] After the exposure, the number of wells containing bacteria was scored for yellow wells. […]\nThe fold increase of revertants relative to the solvent control was determined by dividing the mean number of positive wells at each dose by the solvent control at baseline. The solvent control at baseline was calculated as the mean number of positive wells in the solvent control plus one standard deviation (SD). […]"}}}
{"smiles": "C[C@H](O)CNC(=O)/C=C/c1ccccc1", "note": "[KM-568, S(+)-(2E)-N-(2-hydroxypropyl)-3-phenylprop-2-enamide]", "values": [{"measurement": "ED50", "setting": "mice [1]; ip, 0.25 h", "value": 44.5, "unit": "mg/kg"}, {"measurement": "ED50", "setting": "mice [1]; po, 0.5 h", "value": 86.6, "unit": "mg/kg"}, {"measurement": "MES Results (protected/tested animals)", "setting": "mice [1]; i.p., 25 mg/kg, 0.25 h", "value": "0/8"}, {"measurement": "MES Results (protected/tested animals)", "setting": "mice [1]; i.p., 38 mg/kg, 0.25 h", "value": "1/8"}, {"measurement": "MES Results (protected/tested animals)", "setting": "mice [1]; i.p., 41 mg/kg, 0.25 h", "value": "0/8"}, {"measurement": "MES Results (protected/tested animals)", "setting": "mice [1]; i.p., 42 mg/kg, 0.25 h", "value": "2/8"}, {"measurement": "MES Results (protected/tested animals)", "setting": "mice [1]; i.p., 44 mg/kg, 0.25 h", "value": "5/8"}, {"measurement": "MES Results (protected/tested animals)", "setting": "mice [1]; i.p., 50 mg/kg, 0.25 h", "value": "7/8"}, {"measurement": "MES Results (protected/tested animals)", "setting": "mice [1]; p.o., 50 mg/kg, 0.5 h", "value": "0/8"}, {"measurement": "MES Results (protected/tested animals)", "setting": "mice [1]; p.o., 60 mg/kg, 0.5 h", "value": "2/8"}, {"measurement": "MES Results (protected/tested animals)", "setting": "mice [1]; p.o., 70 mg/kg, 0.5 h", "value": "2/8"}, {"measurement": "MES Results (protected/tested animals)", "setting": "mice [1]; p.o., 90 mg/kg, 0.5 h", "value": "3/8"}, {"measurement": "MES Results (protected/tested animals)", "setting": "mice [1]; p.o., 120 mg/kg, 0.5 h", "value": "7/8"}, {"measurement": "MES Results (protected/tested animals)", "setting": "mice [1]; p.o., 150 mg/kg, 0.5 h", "value": "8/8"}, {"measurement": "Clonus (calculated metrazol dose causing clonus)", "setting": "CF-1 mice; 44 mg/kg i.p.", "value": "50.8 ± 3.5", "unit": "mg/kg"}, {"measurement": "Twitch (calculated metrazol dose causing first twitch)", "setting": "CF-1 mice; 44 mg/kg i.p.", "value": "37.8 ± 1.4", "unit": "mg/kg"}, {"measurement": "Time to clonus", "setting": "CF-1 mice; 44 mg/kg i.p.", "value": "48.2 ± 3.5", "unit": "s"}, {"measurement": "Time to twitch", "setting": "CF-1 mice; 44 mg/kg i.p.", "value": "35.8 ± 1.5", "unit": "s"}, {"measurement": "Clonus (calculated metrazol dose causing clonus)", "setting": "CF-1 mice; 148 mg/kg i.p.", "value": "80.2 ± 3.2", "unit": "mg/kg"}, {"measurement": "Twitch (calculated metrazol dose causing first twitch)", "setting": "CF-1 mice; 148 mg/kg i.p.", "value": "61.3 ± 2.2", "unit": "mg/kg"}, {"measurement": "Time to clonus", "setting": "CF-1 mice; 148 mg/kg i.p.", "value": "75.9 ± 2.9", "unit": "s"}, {"measurement": "Time to twitch", "setting": "CF-1 mice; 148 mg/kg i.p.", "value": "57.9 ± 1.6", "unit": "s"}, {"measurement": "ED50", "setting": "[2]; Rattus norvegicus, ip", "value": 58.6, "unit": "mg/kg"}, {"measurement": "Results (protected/tested animals; protection = Racine score <3)", "setting": "[2]; i.p., 20 mg/kg", "value": "0/7"}, {"measurement": "Seizure Duration ± SD", "setting": "[2]; i.p., 20 mg/kg", "value": "140 ± 17.55", "unit": "s"}, {"measurement": "Seizure Score ± SEM", "setting": "[2]; i.p., 20 mg/kg", "value": "5.0 ± 0.0"}, {"measurement": "Results (protected/tested animals; protection = Racine score <3)", "setting": "[2]; i.p., 40 mg/kg", "value": "2/7"}, {"measurement": "Seizure Duration ± SD", "setting": "[2]; i.p., 40 mg/kg", "value": "94.71 ± 8.72", "unit": "s"}, {"measurement": "Seizure Score ± SEM", "setting": "[2]; i.p., 40 mg/kg", "value": "3.86 ± 0.74"}, {"measurement": "Results (protected/tested animals; protection = Racine score <3)", "setting": "[2]; i.p., 80 mg/kg", "value": "5/7"}, {"measurement": "Seizure Duration ± SD", "setting": "[2]; i.p., 80 mg/kg", "value": "56.57 ± 12.34", "unit": "s"}, {"measurement": "Seizure Score ± SEM", "setting": "[2]; i.p., 80 mg/kg", "value": "2.86 ± 0.63"}, {"measurement": "ED50, lamotrigine-resistant amygdala kindled rat model", "setting": "[2]; i.p.", "value": "58.69 (38.09–120.15) mg/kg"}, {"measurement": "AUC (total area under curve, time of licking)", "setting": "mice [3]; acute phase", "value": 184.18}, {"measurement": "Reduction of time of licking of the affected paw", "setting": "mice [3]; acute phase", "value": 24, "unit": "%"}, {"measurement": "AUC % Control", "setting": "mice [3]; acute phase", "value": 76.37, "unit": "% Control"}, {"measurement": "AUC (total area under curve, time of licking)", "setting": "mice [3]; inflammatory phase", "value": 556.81}, {"measurement": "Reduction of time of licking of the affected paw", "setting": "mice [3]; inflammatory phase", "value": 32, "unit": "%"}, {"measurement": "AUC % Control", "setting": "mice [3]; inflammatory phase", "value": 67.96, "unit": "% Control"}, {"measurement": "mutagenic activity in the Ames MPF assay", "setting": "[4]", "value": "did not exhibit mutagenic activity"}]}
